Assay results from the NIST ThermoML archive (doi:10.1016/j.jct.2013.10.023).

How the values were obtained:
[1] = 101 kPa, Liquid; for viscosity: Capillary tube (Ostwald / Ubbelohde) method; for mass density: Vibrating tube method
[2] = xn = mol fraction of the nth substance listed; settings: 101 kPa, Liquid, x2 = 0; for viscosity: Capillary tube (Ostwald / Ubbelohde) method; for mass density: Vibrating tube method

CC(=O)[O-].CCn1cc[n+](C)c1 [1-ethyl-3-methylimidazolium acetate]
[1]
Settings | mass density [kg/m3] | viscosity [mPa·s]
298.15 K | 1099.04 | 138.4
308.15 K | 1092.95 | 76.1
318.15 K | 1086.88 | 45.9
328.15 K | 1080.86 | 30.1
338.15 K | 1074.86 | 20.8
348.15 K | 1071.37 | 14.28
358.15 K | 1063.03 | 11.53

CCOS(=O)(=O)[O-].CCn1cc[n+](C)c1 [1-ethyl-3-methylimidazolium ethyl sulfate]
[1]
Settings | mass density [kg/m3] | viscosity [mPa·s]
298.15 K | 1238.68 | 96.62
308.15 K | 1231.92 | 60.41
318.15 K | 1225.2 | 39.95
328.15 K | 1218.51 | 28.91
338.15 K | 1211.88 | 20.63
348.15 K | 1208.19 | 15.66
358.15 K | 1198.75 | 12.23

CCOS(=O)(=O)[O-].CCn1cc[n+](C)c1 [1-ethyl-3-methylimidazolium ethyl sulfate] + CC(=O)[O-].CCn1cc[n+](C)c1
[2]
Settings | mass density [kg/m3] | viscosity [mPa·s]
298.15 K | 1238.68 | 96.62
308.15 K | 1231.92 | 60.41
318.15 K | 1225.2 | 39.95
328.15 K | 1218.51 | 28.91
338.15 K | 1211.88 | 20.63
348.15 K | 1208.19 | 15.66
358.15 K | 1198.75 | 12.23
